In data set [1] the test system is phosphodiesterase (PDE) from human blood platelets. Description: PDE inhibition (phosphodiesterase from human blood platelets, 3H-cAMP hydrolysis). The settings on record: human platelet PDE, 1 μmol/liter 3H-cAMP, pH 7.4, 15 minutes at 37° C. Format: biochemical. The protocol:
cAMP is hydrolyzed to AMP by phosphodiesterase (PDE) from various sources, including blood platelets.
The phosphodiesterase used was prepared by centrifugal extraction at 10,000 g from human blood platelets which were frozen in water and then thawed.
A quantity of 0.3 ml of a mixture containing 0.1 mol/liter of […] (pH 7.4), 3 mmols/liter of magnesium chloride, 1 mmol/liter of AMP, 1 μmol/liter of ^3 H-cAMP (specific activity about 10 MBq/μmol), PDE, and the inhibitor under investigation (water in the case of the control) was incubated for 15 minutes at 37° C. […] From a comparison of the results for inhibitor and control cases, the concentration of the respective inhibitor necessary for a 50% inhibiting effect (IC50) was calculated.

Another data set deals with thrombocyte aggregation. Description: Antithrombotic activity: collagen-induced thrombocyte aggregation in platelet-rich plasma (Born and Cross). Format: cell-based. Conditions: Homo sapiens, 50% change in optical density, ten minutes at 37° C. On the procedure: The thrombocyte aggregation is determined in platelet-rich plasma from healthy test subjects using the method of Born and Cross [J. Physiol. 170, 397 (1964)]. To inhibit coagulation, the blood is mixed with 3.14 percent of sodium citrate in a volume ratio of 1:10.
The pattern of the decrease in optical density of the platelet suspension after administration of the aggregation-initiating substance is measured photometrically and recorded. The speed of aggregation is deduced from the angle of inclination of the density curve. The point of the curve where there is the most light transmittance is used to calculate the optical density.
The quantity of collagen used is as small as possible, but sufficient to produce an irreversible reaction curve. The standard commercial collagen made by Hormonchemie of Munich is used. Before the collagen is administered, the plasma is incubated with the substance for ten minutes at 37° C.
From the measurements obtained, and EC50 is obtained graphically, relating to a 50% change in optical density by way of an inhibition of aggregation.

In another data set the test system is primary hemostasis. Description: Determination of the prolongation of bleeding time in conscious mice. Format: in vivo. Conditions: Mus musculus, 1 h, 10 mg/kg oral, one hour, as compared to a control group, read-out: Prolongation of Bleeding Time after One Hour (%). The protocol: Since, in the event of injury, the first rapid cessation of bleeding is effected by the adhesion and aggregation of the thrombocytes at the vessel wall, the functioning of the thrombocytes can easily be determined by measuring the bleeding time with a standardized injury. The normal bleeding time in humans is between 1 and 3 minutes, assuming that there are sufficient intact, effective thrombocytes. If the number of thrombocytes is normal and the bleeding time is prolonged, this signifies an abnormality in the thrombocytes. This is found in some inborn errors of thrombocyte function. If, on the other hand, it is desired to prevent spontaneous aggregation of the thrombocytes and occlusion in the arterial system by drugs, successful therapy affecting the thrombocytes should prolong the bleeding time. Therefore, with use of an antithrombotic substance, a prolongation of the bleeding time is expected. Also, there should be a normal coagulation time since the plasma coagulation system is not affected.
To measure the bleeding time, 10 mg/kg of the test compounds were administered orally to conscious mice. After one hour, 0.5 mm of the tip of the tail of each mouse was cut off, and droplets of blood were gently removed with filter paper every 30 seconds. The number of drops of blood thus obtained gives a bleeding time (5 animals per experiment).
The results in the following table represent the prolongation of the bleeding time in percent as compared to a control group.

A further data set deals with mice. Description: Acute toxicity after oral administration of a single dose. Format: in vivo. The settings on record: observation period 14 days; for Approximate Acute Toxicity: groups of ten, single oral dose; for animals died: single oral dose 1000 mg. On the procedure: The acute toxicity of the test compounds was determined, as a guide, in groups of ten mice, after oral administration of a single dose (observation period: 14 days): […]

pEC50, pIC50: −log10 of the molar value.

The term pIC50 denotes the negative decadic logarithm of the IC50, by convention in mol/L. A higher pIC50 goes with a small IC50. Broadly, the pEC50 is the EC50 on a negative log10 scale, so that one unit is a factor of ten. A high value points to a low EC50. The compound `COc1ccc(S(=N)(=O)CCCCOc2ccc3c(c2)C(C)(C)OC(=O)N3)cc1` (stereo not drawn) [C, 6-[4-(4-methoxy-phenylsulfoximino)-butoxy]-4,4-dimethyl-4H-3,1-benzoxazin-2-one] gave a pIC50 in data set [1] of 6.89. The same compound showed a pEC50 in the data set on thrombocyte aggregation of 6.57. In addition, the change in vivo at 10 mg/kg in the data set on primary hemostasis was greater than 241%. Besides, in the data set on mice, the “Approximate Acute Toxicity” value turned out to be 1000 mg and the animals died is 0 out of 10 animals died.

On to `CC1(C)OC(=O)Nc2ccc(OCCCC[S+]([O-])c3ccc(C4CCCCC4)cc3)cc21` (stereo not drawn) [E, 6-[4-(4-cyclohexyl-phenylsulfinyl)-butoxy]-4,4-dimethyl-4H-3,1-benzoxazin-2-one], for which, in data set [1], the pIC50 is 7.11. This compound gave a pEC50 in the data set with thrombocyte aggregation of 6.49. In addition, the change in vivo at 10 mg/kg in the data set on primary hemostasis is 46%. For the same compound, in the data set on mice, the “Approximate Acute Toxicity” value amounted to 1000 mg and the animals died was 0 out of 10 animals died.

On to `COc1ccc(S(=O)(CCCCOc2ccc3c(c2)C(C)(C)OC(=O)N3)=NC(C)=O)cc1OC` (stereo not drawn) [R, 6-[4-(3,4-dimethoxy-N-acetyl-phenylsulfoximino)-butoxy]-4,4-dimethyl-4H-3,1-benzoxazin-2-one], for which the pIC50 in data set [1] was 6.15. The pEC50 in the data set with thrombocyte aggregation is 5.64. In addition, the change in vivo at 10 mg/kg with primary hemostasis is greater than 241%. Further, in the data set on mice, the “Approximate Acute Toxicity” value came out at 1000 mg and the animals died is 0 out of 10 animals died.

In the case of `CC1(C)OC(=O)Nc2ccc(OCCCCS(=N)(=O)c3ccc(Br)cc3)cc21` (stereo not drawn) [Compound I, 6-[4-(4-bromo-phenylsulfoximino)-butoxy]-4,4-dimethyl-4H-3,1-benzoxazin-2-one], the pIC50 in data set [1] is 6.96. The same compound had a pEC50 with thrombocyte aggregation of 6.48. Besides, in the data set with primary hemostasis, the change in vivo at 10 mg/kg is greater than 220%.

In data set [1], `Cc1ccc([S+]([O-])CCCCOc2ccc3c(c2)C(C)(C)OC(=O)N3)cc1` (stereo not drawn) [D, 6-[4-(4-methyl-phenylsulfinyl)-butoxy]-4,4-dimethyl-4H-3,1-benzoxazin-2-one] had a pIC50 of 6.68. In the data set on thrombocyte aggregation, the pEC50 is 6.48. In addition, in the data set on primary hemostasis, the change in vivo at 10 mg/kg was greater than 250%. For the same compound, in the data set with mice, the “Approximate Acute Toxicity” value amounted to 1000 mg and the animals died is 0 out of 10 animals died.

For the compound `CC1(C)OC(=O)Nc2ccc(OCCCCS(=N)(=O)c3ccc(Cl)c(Cl)c3)cc21` (stereo not drawn) [F, 6-[4-(3,4-dichloro-phenylsulfoximino)-butoxy]-4,4-dimethyl-4H-3,1-benzoxazin-2-one], in data set [1], the pIC50 was 7.38. This compound also gave a pEC50 in the data set with thrombocyte aggregation of 6.68. Moreover, in the data set on primary hemostasis, the change in vivo at 10 mg/kg is greater than 275%.

The compound `Cc1ccc(S(=N)(=O)CCCCOc2cc3c(cc2Br)NC(=O)OC3(C)C)cc1` (stereo not drawn) [T, 7-bromo-4,4-dimethyl-6-[4-(4-methyl-phenylsulfoximino)-butoxy]-4H-3,1-benzoxazin-2-one] had a pIC50 in data set [1] of 9.00. Also, the pEC50 with thrombocyte aggregation was 7.16. Further, the change in vivo at 10 mg/kg in the data set on primary hemostasis was determined as 60%. Moreover, in the data set with mice, the “Approximate Acute Toxicity” value is recorded as 1000 mg and the animals died was 0 out of 10 animals died.

`CC1(C)OC(=O)Nc2ccc(OCCCCS(=N)(=O)c3ccc(O)cc3)cc21` (stereo not drawn) [B, 6-[4-(4-hydroxy-phenylsulfoximino)-butoxy]-4,4-dimethyl-4H-3,1-benzoxazin-2-one] showed a pIC50 in data set [1] of 6.64. Also, in the data set on thrombocyte aggregation, the pEC50 is 6.55. Also, in the data set on primary hemostasis, the change in vivo at 10 mg/kg is greater than 263%. Also, in the data set on mice, the “Approximate Acute Toxicity” value was found to be 1000 mg and the animals died is 0 out of 10 animals died.

Take `CC1(C)OC(=O)Nc2ccc(OCCCCS(=N)(=O)c3ccc(-c4ccccc4)cc3)cc21` (stereo not drawn) [Q, 6-[4-(4-biphenylyl-sulfoximino)-butoxy]-4,4-dimethyl-4H-3,1-benzoxazin-2-one]: the pIC50 in data set [1] was 8.17. Also, the pEC50 in the data set on thrombocyte aggregation was 6.60. In addition, in the data set on primary hemostasis, the change in vivo at 10 mg/kg was 128%.

In data set [1], `O=C1Nc2ccc(OCCCC[S+]([O-])c3ccccc3)cc2CO1` (stereo not drawn) [K, 6-(4-phenylsulfinyl-butoxy)-4H-3,1-benzoxazin-2-one] gave a pIC50 of 5.82. The compound further showed a pEC50 in the data set with thrombocyte aggregation of 5.72. For the same compound, the change in vivo at 10 mg/kg in the data set on primary hemostasis was determined as 121%.

For `CC1(C)OC(=O)Nc2cc(Br)c(OCCCC[S+]([O-])c3ccc(Cl)c(Cl)c3)cc21` (stereo not drawn) [V, 7-bromo-6-[4-(3,4-dichloro-phenylsulfinyl)-butoxy]-4,4-dimethyl-4H-3,1-benzoxazin-2-one], the pIC50 in data set [1] was 8.42. Besides, the pEC50 with thrombocyte aggregation was 7.36. For the same compound, the change in vivo at 10 mg/kg with primary hemostasis was 100%. In the data set with mice, the “Approximate Acute Toxicity” value is on record as 1000 mg and the animals died was 0 out of 10 animals died.

For `CC1(C)OC(=O)Nc2ccc(OCCCC[S+]([O-])c3ccc(Br)cc3)cc21` (stereo not drawn) [L, 6-[4-(4-bromo-phenylsulfinyl)-butoxy]-4,4-dimethyl-4H-3,1-benzoxazin-2-one], the negative logarithm of the IC50 (pIC50) in data set [1] is 6.62. Moreover, in the data set on thrombocyte aggregation, the pEC50 was 6.38. In addition, the change in vivo at 10 mg/kg in the data set on primary hemostasis is greater than 266%.

Regarding `Cc1ccc([S+]([O-])CCCCOc2cc3c(cc2Cl)NC(=O)OC3(C)C)cc1` (stereo not drawn) [U, 7-chloro-4,4-dimethyl-6-[4-(4-methyl-phenylsulfinyl)-butoxy]-4H-3,1-benzoxazin-2-one], in data set [1], the pIC50 was 8.47. In the data set on thrombocyte aggregation, this compound gave a pEC50 of 7.55. The change in vivo at 10 mg/kg in the data set on primary hemostasis was greater than 230%. In the data set on mice, the “Approximate Acute Toxicity” value is on record as 1000 mg and the animals died is listed as 0 out of 10 animals died.

For `Cc1ccc(S(=N)(=O)CCCCOc2ccc3c(c2)C(C)(C)OC(=O)N3)cc1` (stereo not drawn) [N, 6-[4-(4-methyl-phenylsulfoximino)-butoxy]-4,4-dimethyl-4H-3,1-benzoxazin-2-one], in data set [1], the pIC50 is 7.19. The same compound had a pEC50 in the data set with thrombocyte aggregation of 6.66. Moreover, the change in vivo at 10 mg/kg in the data set on primary hemostasis is 63%.

Regarding `CC1(C)OC(=O)Nc2ccc(OCCCC[S+]([O-])c3cc(Br)c(N)c(Br)c3)cc21` (stereo not drawn) [P, 6-[4-(4-amino-3,5-dibromo-phenylsulfinyl)-butoxy]-4,4-dimethyl-4H-3,1-benzoxazin-2-one], the pIC50 in data set [1] was 7.25. Besides, the pEC50 with thrombocyte aggregation was 6.26. Further, in the data set on primary hemostasis, the change in vivo at 10 mg/kg came to 73%.

With `CC(=O)N=S(=O)(CCCCOc1ccc2c(c1)C(C)(C)OC(=O)N2)c1cc(C(C)(C)C)c(O)c(C(C)(C)C)c1` (stereo not drawn) [S, 6-[4-(3,5-di-tert.butyl-4-hydroxy-N-acetyl-phenylsulfoximino)-butoxy]-4,4-dimethyl-4H-3,1-benzoxazin-2-one], the pIC50 in data set [1] was 7.11. The pEC50 in the data set with thrombocyte aggregation was 5.66. Moreover, the change in vivo at 10 mg/kg in the data set with primary hemostasis was greater than 226%. Besides, in the data set on mice, the “Approximate Acute Toxicity” value is reported as 1000 mg and the animals died is given as 0 out of 10 animals died.

The compound `Cc1cc(S(=N)(=O)CCCCOc2ccc3c(c2)C(C)(C)OC(=O)N3)ccc1Br` (stereo not drawn) [M, 6-[4-(4-bromo-3-methyl-phenylsulfoximino)-butoxy]-4,4-dimethyl-4H-3,1-benzoxazin-2-one] gave a pIC50 in data set [1] of 7.18. Moreover, the pEC50 in the data set on thrombocyte aggregation is 6.60. In the data set with primary hemostasis, the change in vivo at 10 mg/kg was 100%.

In data set [1], `COc1cccc(S(=N)(=O)CCCCOc2ccc3c(c2)C(C)(C)OC(=O)N3)c1` (stereo not drawn) [G] showed a pIC50 of 7.11. In the data set with thrombocyte aggregation, this compound gave a pEC50 of 6.57. For the same compound, the change in vivo at 10 mg/kg in the data set on primary hemostasis was greater than 245%.

Consider `COc1ccc(S(=N)(=O)CCCCOc2ccc3c(c2)C(C)(C)OC(=O)N3)cc1OC` (stereo not drawn) [O, 6-[4-(3,4-dimethoxy-phenylsulfoximino)-butoxy]-4,4-dimethyl-4H-3,1-benzoxazin-2-one], for which, in data set [1], the pIC50 was 6.70. The same compound had a negative logarithm of the EC50 (pEC50) in the data set on thrombocyte aggregation of 6.57. Also, the change in vivo at 10 mg/kg with primary hemostasis was greater than 227%.

In data set [1], `CC1(C)OC(=O)Nc2ccc(OCCCCS(=N)(=O)c3ccc(F)cc3)cc21` (stereo not drawn) [H, 6-[4-(4-fluoro-phenylsulfoximino)-butoxy]-4,4-dimethyl-4H-3,1-benzoxazin-2-one] had a pIC50 of 6.74. This compound had a pEC50 in the data set with thrombocyte aggregation of 6.49. Also, the change in vivo at 10 mg/kg in the data set on primary hemostasis is greater than 211%.
